Calls of active or inactive are those of the source. No rule for the calls is given here.
System: CCRIS mutagenicity, Ames/micronucleus/aberration tests
Test: CCRIS mutagenicity studies
[1] = Test System: AMES SALMONELLA TYPHIMURIUM, Strain/Indicator: TA98, Metabolic Activation: NONE, Method: PREINCUBATION
[2] = Test System: AMES SALMONELLA TYPHIMURIUM, Strain/Indicator: TA100, Metabolic Activation: NONE, Method: PREINCUBATION
[3] = Test System: AMES SALMONELLA TYPHIMURIUM, Strain/Indicator: TA98, Metabolic Activation: HAMSTER, LIVER, S-9, AROCLOR 1254 (10%), Method: PREINCUBATION
[4] = Test System: AMES SALMONELLA TYPHIMURIUM, Strain/Indicator: TA98, Metabolic Activation: RAT, LIVER, S-9, AROCLOR 1254 (10%), Method: PREINCUBATION
[5] = Test System: AMES SALMONELLA TYPHIMURIUM, Strain/Indicator: TA100, Metabolic Activation: HAMSTER, LIVER, S-9, AROCLOR 1254 (10%), Method: PREINCUBATION
[6] = Test System: AMES SALMONELLA TYPHIMURIUM, Strain/Indicator: TA100, Metabolic Activation: RAT, LIVER, S-9, AROCLOR 1254 (10%), Method: PREINCUBATION
[7] = Test System: AMES SALMONELLA TYPHIMURIUM, Strain/Indicator: TA1535, Metabolic Activation: HAMSTER, LIVER, S-9, AROCLOR 1254 (10%), Method: PREINCUBATION
[8] = Test System: AMES SALMONELLA TYPHIMURIUM, Strain/Indicator: TA1535, Metabolic Activation: NONE, Method: PREINCUBATION
[9] = Test System: AMES SALMONELLA TYPHIMURIUM, Strain/Indicator: TA1535, Metabolic Activation: RAT, LIVER, S-9, AROCLOR 1254 (10%), Method: PREINCUBATION

Question: `CCN(CC)C(=S)SSC[C@H](NC(=O)CC[C@H](N)C(=O)O)C(=O)NCC(=O)O` was tested. Which mutagenic call [1] did it give?
Answer: inactive; negative

Question: What about the mutagenic call (Test System: AMES SALMONELLA TYPHIMURIUM, Strain/Indicator: TA98, Metabolic Activation: RAT, LIVER, S-9, AROCLOR 1254, Method: PREINCUBATION) of the same compound?
Answer: inactive; negative

Question: And the mutagenic call [2]?
Answer: inactive; negative

Question: What about the mutagenic call (Test System: AMES SALMONELLA TYPHIMURIUM, Strain/Indicator: TA100, Metabolic Activation: RAT, LIVER, S-9, AROCLOR 1254, Method: PREINCUBATION) of the same compound?
Answer: inactive; negative

Question: `COO` was tested. Which mutagenic call (Test System: AMES SALMONELLA TYPHIMURIUM, Strain/Indicator: TA100, Metabolic Activation: NONE, Method: STANDARD PLATE) did it give?
Answer: inactive; negative

Question: And the mutagenic call (Test System: AMES SALMONELLA TYPHIMURIUM, Strain/Indicator: TA102, Metabolic Activation: NONE, Method: STANDARD PLATE)?
Answer: active; positive

Question: With `O=NC1=Cc2nc3ccccn3c2NC1` as the compound, how does the mutagenic call (Test System: AMES SALMONELLA TYPHIMURIUM, Strain/Indicator: TA98, Metabolic Activation: NONE, Method: STANDARD PLATE) read?
Answer: active; positive

Question: What about the mutagenic call (Test System: AMES SALMONELLA TYPHIMURIUM, Strain/Indicator: TA98, Metabolic Activation: RAT, LIVER, CYTOSOL, AROCLOR 1254, Method: STANDARD PLATE) of the same compound?
Answer: active; positive

Question: And the mutagenic call (Test System: AMES SALMONELLA TYPHIMURIUM, Strain/Indicator: TA98, Metabolic Activation: RAT, LIVER, MICROSOMES, AROCLOR 1254, Method: STANDARD PLATE)?
Answer: inactive; negative

Question: And the mutagenic call (Test System: AMES SALMONELLA TYPHIMURIUM, Strain/Indicator: TA98, Metabolic Activation: RAT, LIVER, S-9, AROCLOR 1254, Method: STANDARD PLATE)?
Answer: active; positive

Question: Which results are given for `CC(=O)ON(C(C)=O)c1ccc(/C=C\c2ccccc2)cc1`?
Answer: mutagenic call (Test System: UDS HUMAN CELLS, Strain/Indicator: THY INCORP (NON-S-PHASE), Metabolic Activation: NONE, Method: LIQUID SCINTILLATION COUNTING): active; positive; mutagenic call (Test System: UDS HUMAN FIBROBLASTS, Strain/Indicator: THY INCORP (NON-S-PHASE), Metabolic Activation: NONE, Method: AUTORADIOGRAPHY): active; positive

Question: With `O=[N+]([O-])c1ccc(-c2csc(Cl)n2)o1` as the compound, how does the mutagenic call (Test System: E. COLI, Strain/Indicator: WP2, Metabolic Activation: NONE, Method: SPOT) read?
Answer: active; positive

Question: And the mutagenic call (Test System: E. COLI, Strain/Indicator: WP2 UVRA, Metabolic Activation: NONE, Method: SPOT)?
Answer: active; positive

Question: `B#B` was tested. Which mutagenic call [3] did it give?
Answer: inactive; negative

Question: What about the mutagenic call (Test System: AMES SALMONELLA TYPHIMURIUM, Strain/Indicator: TA98, Metabolic Activation: NONE, Method: GAS EXPOSURE) of the same compound?
Answer: active; positive

Question: And the mutagenic call [1]?
Answer: inactive; negative

Question: What about the mutagenic call (Test System: AMES SALMONELLA TYPHIMURIUM, Strain/Indicator: TA98, Metabolic Activation: RAT LIVER S-9, PHENOBARBITAL AND BETA-NAPHTHOFLAVONE, Method: GAS EXPOSURE) of the same compound?
Answer: active; positive

Question: What about the mutagenic call [4] of the same compound?
Answer: inactive; negative

Question: What about the mutagenic call (Test System: AMES SALMONELLA TYPHIMURIUM, Strain/Indicator: TA98, Metabolic Activation: RAT, LIVER, S-9, PHENOBARBITAL AND 5,6-BENZOFLAVONE, Method: GAS EXPOSURE) of the same compound?
Answer: active; positive

Question: What about the mutagenic call [5] of the same compound?
Answer: inactive; negative

Question: And the mutagenic call [2]?
Answer: inactive; negative

Question: And the mutagenic call (Test System: AMES SALMONELLA TYPHIMURIUM, Strain/Indicator: TA100, Metabolic Activation: RAT LIVER S-9, PHENOBARBITAL AND BETA-NAPHTHOFLAVONE, Method: GAS EXPOSURE)?
Answer: active; positive

Question: And the mutagenic call [6]?
Answer: inactive; negative

Question: What about the mutagenic call (Test System: AMES SALMONELLA TYPHIMURIUM, Strain/Indicator: TA100, Metabolic Activation: RAT, LIVER, S-9, PHENOBARBITAL AND 5,6-BENZOFLAVONE, Method: GAS EXPOSURE) of the same compound?
Answer: active; positive

Question: What about the mutagenic call [7] of the same compound?
Answer: inactive; negative

Question: And the mutagenic call (Test System: AMES SALMONELLA TYPHIMURIUM, Strain/Indicator: TA1535, Metabolic Activation: NONE, Method: GAS EXPOSURE)?
Answer: inactive; negative

Question: And the mutagenic call [8]?
Answer: inactive; negative

Question: What about the mutagenic call (Test System: AMES SALMONELLA TYPHIMURIUM, Strain/Indicator: TA1535, Metabolic Activation: RAT LIVER S-9, PHENOBARBITAL AND BETA-NAPHTHOFLAVONE, Method: GAS EXPOSURE) of the same compound?
Answer: inactive; negative

Question: What about the mutagenic call [9] of the same compound?
Answer: inactive; negative

Question: What about the mutagenic call (Test System: AMES SALMONELLA TYPHIMURIUM, Strain/Indicator: TA1535, Metabolic Activation: RAT, LIVER, S-9, PHENOBARBITAL AND 5,6-BENZOFLAVONE, Method: GAS EXPOSURE) of the same compound?
Answer: inactive; negative

Question: What about the mutagenic call (Test System: AMES SALMONELLA TYPHIMURIUM, Strain/Indicator: TA1537, Metabolic Activation: HAMSTER, LIVER, S-9, AROCLOR 1254 (10%), Method: PREINCUBATION) of the same compound?
Answer: inactive; negative

Question: What about the mutagenic call (Test System: AMES SALMONELLA TYPHIMURIUM, Strain/Indicator: TA1537, Metabolic Activation: NONE, Method: GAS EXPOSURE) of the same compound?
Answer: inactive; negative

Question: And the mutagenic call (Test System: AMES SALMONELLA TYPHIMURIUM, Strain/Indicator: TA1537, Metabolic Activation: NONE, Method: PREINCUBATION)?
Answer: inactive; negative

Question: What about the mutagenic call (Test System: AMES SALMONELLA TYPHIMURIUM, Strain/Indicator: TA1537, Metabolic Activation: RAT LIVER S-9, PHENOBARBITAL AND BETA-NAPHTHOFLAVONE, Method: GAS EXPOSURE) of the same compound?
Answer: inactive; negative

Question: What about the mutagenic call (Test System: AMES SALMONELLA TYPHIMURIUM, Strain/Indicator: TA1537, Metabolic Activation: RAT, LIVER, S-9, AROCLOR 1254 (10%), Method: PREINCUBATION) of the same compound?
Answer: inactive; negative

Question: What about the mutagenic call (Test System: AMES SALMONELLA TYPHIMURIUM, Strain/Indicator: TA1537, Metabolic Activation: RAT, LIVER, S-9, PHENOBARBITAL AND 5,6-BENZOFLAVONE, Method: GAS EXPOSURE) of the same compound?
Answer: inactive; negative

Question: What about the mutagenic call (Test System: E. COLI, Strain/Indicator: WP2 UVRA, Metabolic Activation: NONE, Method: GAS EXPOSURE) of the same compound?
Answer: inactive; negative

Question: And the mutagenic call (Test System: E. COLI, Strain/Indicator: WP2 UVRA, Metabolic Activation: RAT, LIVER, S-9, PHENOBARBITAL AND 5,6-BENZOFLAVONE, Method: GAS EXPOSURE)?
Answer: active; positive

Question: And the mutagenic call (Test System: E.COLI, Strain/Indicator: WP2UVRA, Metabolic Activation: NONE, Method: GAS EXPOSURE)?
Answer: inactive; negative

Question: What about the mutagenic call (Test System: E.COLI, Strain/Indicator: WP2UVRA, Metabolic Activation: RAT LIVER S-9, PHENOBARBITAL AND BETA-NAPHTHOFLAVONE, Method: GAS EXPOSURE) of the same compound?
Answer: active; positive

Question: For `COc1ccc(C(=O)/C(Br)=C\C(=O)O)cc1`, which mutagenic call (End Point: IN VITRO CHROMOSOMAL ABERRATIONS, Test System: CHO CELLS, Metabolic Activation: NONE) is on record?
Answer: active; positive

Question: And the mutagenic call (End Point: IN VITRO CHROMOSOMAL ABERRATIONS, Test System: CHO CELLS, Metabolic Activation: RAT, LIVER, S-9, AROCLOR 1254)?
Answer: active; positive

Question: What about the mutagenic call (Test System: AMES SALMONELLA TYPHIMURIUM, Strain/Indicator: TA97, Metabolic Activation: HAMSTER, LIVER, S-9, AROCLOR 1254 (10%), Method: PREINCUBATION) of the same compound?
Answer: active; positive

Question: And the mutagenic call (Test System: AMES SALMONELLA TYPHIMURIUM, Strain/Indicator: TA97, Metabolic Activation: NONE, Method: PREINCUBATION)?
Answer: active; positive

Question: What about the mutagenic call (Test System: AMES SALMONELLA TYPHIMURIUM, Strain/Indicator: TA97, Metabolic Activation: RAT, LIVER, S-9, AROCLOR 1254 (10%), Method: PREINCUBATION) of the same compound?
Answer: active; positive

Question: And the mutagenic call [3]?
Answer: active; positive

Question: And the mutagenic call [1]?
Answer: active; positive

Question: And the mutagenic call [4]?
Answer: active; positive

Question: And the mutagenic call [5]?
Answer: active; positive

Question: And the mutagenic call [2]?
Answer: active; positive

Question: What about the mutagenic call [6] of the same compound?
Answer: active; positive

Question: What about the mutagenic call [7] of the same compound?
Answer: active; positive

Question: And the mutagenic call [8]?
Answer: inactive; negative

Question: What about the mutagenic call [9] of the same compound?
Answer: active; positive

Question: What about the mutagenic call (Test System: MOUSE LYMPHOMA, Strain/Indicator: L5178Y (TK+/TK-), Metabolic Activation: NONE, Method: SUSPENSION/PLATE) of the same compound?
Answer: active; positive

Question: And the mutagenic call (Test System: UDS RODENT HEPATOCYTES, Strain/Indicator: THY INCORP (NON-S-PHASE), Metabolic Activation: 3-METHYLCHOLANTHRENE, Method: AUTORADIOGRAPHY)?
Answer: active; positive

Question: What about the mutagenic call (Test System: UDS RODENT HEPATOCYTES, Strain/Indicator: THY INCORP (NON-S-PHASE), Metabolic Activation: AROCLOR, Method: AUTORADIOGRAPHY) of the same compound?
Answer: active; positive

Question: And the mutagenic call (Test System: UDS RODENT HEPATOCYTES, Strain/Indicator: THY INCORP (NON-S-PHASE), Metabolic Activation: NONE, Method: AUTORADIOGRAPHY)?
Answer: inactive; negative

Source: PubChem BioAssay AID1259407 (Chemical Carcinogenesis Research Information System (CCRIS), 2018)
